Source: patent US7056922B2, “Acylamino cyclopropane derivatives” (Pfizer Inc, priority 2000, dated 2006)
Structures can show the parent of a compound that is named as a salt.

Legend:
[1] = target: human dopamine D3 receptor (Homo sapiens, UniProt P35462); assay: Displacement of [3H] 7 OH-DPAT binding to membranes of CHO cells expressing human dopamine D3 receptor; details: [3H] 7 OH-DPAT 0.4 nM, CHO cell membranes, cloned human D3 receptor
Description: The inhibition constants (Ki) of test compounds were measured by displacement of [^3H] 7 OH-DPAT binding to membrane preparations from Chinese hamster ovary cells expressing human dopamine D3 receptor. Cells expressing the human D3 receptor were homogenized with Polytron and centrifuged for 10 min at 4° C. at 20,000 RPM in a Sorvall RCB5 centrifuge with a SS34 rotor. After repeating the washing once more, the pellet was resuspended in buffer consisting of 120 mM NaCl, 5 mM KCl, 5 mM MgCl2, 2 mM CaCl2 and 50 mM tris, pH 7.4 and the protein content determined using bovine serum albumin as a standard (Bradford, M. M. (1976) Anal. Biochem. 72, 248–254). Compounds at varying concentrations were incubated with the membrane preparations in the presence of 0.4 nM [^3H] 7 OH-DPAT. The assay was incubated for 15 min at 37° C. and the reaction was terminated by rapid filtration with 50 mM Tris pH 7.4, through GF/B filters previously soaked in 0.5% polyethyleneimine. Filters were dried overnight and counted in Betaplate Scintillation counter. Non-specific binding was defined as the radioligand binding remaining after incubation in the presence of 10 μM butacomol. For competition curves, seven concentrations (single log dilutions) of competing unlabeled, compounds were used. Competition curves were analysed simultaneously whenever possible using non-linear least-squares fitting procedures, capable of fitting one, two or three site models.

[2] = target: dopamine D2 receptor (Homo sapiens, UniProt P14416); assay: Dopamine D2 receptor binding (Binding data table)
Sequence of dopamine D2 receptor (P14416 whole entry, species assumed): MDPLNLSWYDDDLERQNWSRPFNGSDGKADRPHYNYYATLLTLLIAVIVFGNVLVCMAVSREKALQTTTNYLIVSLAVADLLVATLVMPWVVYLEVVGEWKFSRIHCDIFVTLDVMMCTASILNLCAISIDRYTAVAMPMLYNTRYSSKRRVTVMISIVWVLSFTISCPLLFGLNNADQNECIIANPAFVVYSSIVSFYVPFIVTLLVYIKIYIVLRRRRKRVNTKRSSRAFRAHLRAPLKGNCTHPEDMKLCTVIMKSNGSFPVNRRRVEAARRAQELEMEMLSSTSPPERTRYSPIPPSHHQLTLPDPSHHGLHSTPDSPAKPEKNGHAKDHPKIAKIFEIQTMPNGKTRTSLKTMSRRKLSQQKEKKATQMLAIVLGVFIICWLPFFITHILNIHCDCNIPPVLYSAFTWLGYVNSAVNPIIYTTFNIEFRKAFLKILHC

Sequence of human dopamine D3 receptor (P35462 whole entry): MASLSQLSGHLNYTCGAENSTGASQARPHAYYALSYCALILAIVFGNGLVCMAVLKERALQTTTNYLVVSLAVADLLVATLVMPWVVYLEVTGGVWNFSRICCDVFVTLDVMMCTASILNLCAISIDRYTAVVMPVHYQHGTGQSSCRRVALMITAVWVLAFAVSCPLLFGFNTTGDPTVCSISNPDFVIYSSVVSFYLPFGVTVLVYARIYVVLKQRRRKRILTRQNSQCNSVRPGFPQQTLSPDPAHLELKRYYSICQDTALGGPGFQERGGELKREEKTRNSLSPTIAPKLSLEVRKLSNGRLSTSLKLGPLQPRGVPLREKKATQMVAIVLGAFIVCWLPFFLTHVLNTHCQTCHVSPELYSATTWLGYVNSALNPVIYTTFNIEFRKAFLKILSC

SMILES: CC(C)(C)c1nc(N2CCN(CC3CC3CNC(=O)c3ccc(Cl)cc3)CC2)cc(C(F)(F)F)n1 (racemic) [[Z](+/−)N-{2-[4-(2-tert-Butyl-6-trifluoromethyl-pyrimidin-4-yl)-piperazin-1-ylmethyl]-cyclopropylmethyl}-4-chloro-benzamide]
- Ki [1]: 31 nM
- Ki [2]: > 740 nM

SMILES: Cc1cccc(C)c1C(=O)NCC1CC1CN1CCN(c2cccc(C(F)(F)F)c2)CC1 (single isomer, unassigned) [2,6-Dimethyl-N-{(E)-2-[4-(3-trifluoromethyl-phenyl)-piperazin-1-ylmethyl]-cyclopropylmethyl}benzamide]
- Ki [1]: 2 nM
- Ki [2]: 76 nM

SMILES: Cc1cccc(C)c1C(=O)NCC1CC1CN1CCN(c2cccc(C(F)(F)F)c2)CC1 (single isomer, unassigned) [2,6-Dimethyl-N-{(Z)-2-[4-(3-trifluoromethyl-phenyl)-piperazin-1-ylmethyl]-cyclopropylmethyl}benzamide]
- Ki [1]: 5 nM
- Ki [2]: 460 nM

SMILES: Cc1cccc(C)c1C(=O)NCC1CC1CN1CCN(c2cc(C(F)(F)F)nc(C(C)(C)C)n2)CC1 (racemic) [N-{(Z)-2-[4-(2-tert-Butyl-6-trifluoromethyl-pyrimidin-4-yl)-piperazin-1-ylmethyl]-cyclopropylmethyl}-2,6-dimethyl-benzamide, dihydrochloride salt]
- Ki [1]: 16 nM
- Ki [2]: > 770 nM
